Test results from patent publication US10988459B2 (priority 2015, dated 2021).

Each compound was assayed against human RIP1 kinase domain (2-375) (Homo sapiens (Human), UniProt Q13546) (assay: biochemical). Settings: Table 1; apparent Ki (Morrison tight-binding fit); 50 nM RIP1 kinase domain, 50 uM ATP, 2 hours incubation; read-out: RIP1 Ki.
Format: biochemical
Method in brief: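 50 nM purified kinase domain from baculovirus-infected insect cells, incubated 2 h with compound in 50 mM Hepes pH 7.5, 30 mM MgCl2, 1 mM DTT, 50 uM ATP, 0.002% Brij-35, 0.5% DMSO. ADP formation read by Transcreener FP at 633 nm excitation. Ki^app fitted with the Morrison tight-binding equation.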

human RIP1 kinase domain (2-375), sequence (Q13546 2-375): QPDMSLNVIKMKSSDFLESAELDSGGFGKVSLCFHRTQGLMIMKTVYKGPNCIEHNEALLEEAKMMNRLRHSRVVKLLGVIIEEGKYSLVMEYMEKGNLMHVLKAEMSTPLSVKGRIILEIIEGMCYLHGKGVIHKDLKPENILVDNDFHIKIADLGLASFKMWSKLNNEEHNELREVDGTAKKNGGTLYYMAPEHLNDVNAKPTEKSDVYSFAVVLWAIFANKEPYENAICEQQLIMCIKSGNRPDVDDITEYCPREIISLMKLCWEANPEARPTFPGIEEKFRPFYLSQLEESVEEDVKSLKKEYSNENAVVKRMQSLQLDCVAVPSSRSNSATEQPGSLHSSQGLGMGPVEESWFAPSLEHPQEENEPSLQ

Compound	Ki [nM]
CN1C(=O)C(NC(=O)c2nnc(Cc3ccccc3)[nH]2)CCn2nc(C(F)(F)F)cc21 (stereo not shown) [Example 30, 5-benzyl-N-[4-methyl-5-oxo-2-(trifluoromethyl)-7,8-dihydro-6H-pyrazolo[1,5-a][1,3]diazepin-6-yl]-4H-1,2,4-triazole-3-carboxamide]	208

Same assay, conditions: Table 5; apparent Ki (Morrison tight-binding fit); 50 nM RIP1 kinase domain, 50 uM ATP, 2 hours incubation; read-out: Ki

Ki [nM]	Compound
42	C[C@]1(C(F)(F)F)OCc2cnc(C(=O)N[C@H]3CCc4cc(F)cc(F)c4NC3=O)nc21 [Example 747, (7S)-7-methyl-N-[(3S)-7,9-difluoro-2-oxo-1,3,4,5-tetrahydro-1-benzazepin-3-yl]-7-(trifluoromethyl)-5H-furo[3,4-d]pyrimidine-2-carboxamide]
598	COCCNCc1cc2n(n1)CCC(NC(=O)c1ncn(Cc3ccccc3)n1)C(=O)N2C (single isomer, unassigned) [Example 724, 1-benzyl-N-[2-[(2-methoxyethylamino)methyl]-4-methyl-5-oxo-7,8-dihydro-6H-pyrazolo[1,5-a][1,3]diazepin-6-yl]-1,2,4-triazole-3-carboxamide]
112	CN1C(=O)[C@@H](NC(=O)c2nc3n(n2)CCN(C)C3c2ccccc2)COc2ccccc21 (single isomer, unassigned) [Example 730]
37	CN1C(=O)[C@@H](NC(=O)c2ncn(Cc3ccccc3)n2)CCn2nc(CC3CCOCC3)cc21 [Example 774, 1-benzyl-N-[(6S)-4methyl-5-oxo-2-(tetrahydropyran-4-ylmethyl)-7,8-dihydro-6H-pyrazolo[1,5-a][1,3]diazepin-6-yl]-1,2,4-triazole-3-carboxamide]
13	CN1C(=O)[C@@H](NC(=O)c2nc3n(n2)C(c2ccccc2)CCC3)COc2ccccc21 (single isomer, unassigned) [Example 791]

Same assay, conditions: human RIP1 kinase domain (2-375), 50 uM ATP, 2 hours incubation, Transcreener ADP assay; read-out: RIP1 Ki

Ki [nM]	Compound
801	CN1C(=O)C(NC(=O)c2nnc(Cc3ccc(F)cc3)[nH]2)CCCn2nccc21 (stereo not shown) [Example 96, 5-(4-fluorobenzyl)-N-(4-methyl-5-oxo-4,5,6,7,8,9-hexahydropyrazolo[1,5-a][1,3]diazocin-6-yl)-4H-1,2,4-triazole-3-carboxamide]
260	CN1C(=O)[C@@H](NC(=O)c2n[nH]c3c2CC2(CC3)CC2(F)F)COc2ccccc21 (stereo partly drawn) [Example 189, 2,2-difluoro-N—((S)-5-methyl-4-oxo-2,3,4,5-tetrahydrobenzo[b][1,4]oxazepin-3-yl)-1′,4′,6′,7′-tetrahydrospiro[cyclopropane-1,5′-indazole]-3′-carboxamide]
5100	CC(C)n1ncc2c1OC[C@H](NC(=O)c1nnc(Cc3ccccc3)[nH]1)C(=O)N2 [Example 197, (S)-5-benzyl-N-(1-isopropyl-5-oxo-4,5,6,7-tetrahydro-1H-pyrazolo [3,4-b][1,4]oxazepin-6-yl)-4H-1,2,4-triazole-3-carboxamide]
4300	CC(c1ccccc1)c1nnc(C(=O)NC2CCCn3nccc3N(C)C2=O)[nH]1 (stereo not shown) [Example 95, N-(4-methyl-5-oxo-4,5,6,7,8,9-hexahydropyrazolo[1,5-a][1,3]diazocin-6-yl)-5-(1-phenylethyl)-4H-1,2,4-triazole-3-carboxamide]
55.4	Cc1cc(F)c2c(c1)OC[C@H](NC(=O)c1n[nH]c3c1C[C@H](C(F)(F)F)CC3)C(=O)N2 [Example 89, (R)—N—((S)-6-fluoro-8-methyl-4-oxo-2,3,4,5-tetrahydrobenzo[b][1,4]oxazepin-3-yl)-5-(trifluoromethyl)-4,5,6,7-tetrahydro-1H-indazole-3-carboxamide]
215	CN1C(=O)C(NC(=O)c2nnc(Cc3cccc(F)c3F)[nH]2)CCCn2nccc21 (stereo not shown) [Example 97, 5-(2,3-difluorobenzyl)-N-(4-methyl-5-oxo-4,5,6,7,8,9-hexahydropyrazolo[1,5-a][1,3]diazocin-6-yl)-4H-1,2,4-triazole-3-carboxamide]
1300	CCOC(=O)[C@@H]1[C@@H]2CC[C@H](NC(=O)c3ncn(Cc4ccccc4)n3)C(=O)N(C)[C@@H]21 (single isomer, unassigned) [Example 131]

Same assay, conditions: human RIP1 kinase domain (2-375), Transcreener ADP assay, 50 uM ATP, 2 hours incubation; read-out: RIP1 Ki

Ki [nM]	Compound
46.7	Cc1nn2c(c1C)N(C)C(=O)[C@@H](NC(=O)c1ncn(Cc3ccc(F)c(F)c3)n1)CC2 [Example 273, (S)-1-(3,4-difluorobenzyl)-N-(2,3,4-trimethyl-5-oxo-5,6,7,8-tetrahydro-4H-pyrazolo[1,5-a][1,3]diazepin-6-yl)-1H-1,2,4-triazole-3-carboxamide]
10.4	Cc1cc2n(n1)CC[C@H](NC(=O)c1ncn(Cc3c(F)cccc3F)n1)C(=O)N2C [Example 301, (S)-1-(2,6-difluorobenzyl)-N-(2,4-dimethyl-5-oxo-5,6,7,8-tetrahydro-4H-pyrazolo[1,5-a][1,3]diazepin-6-yl)-1H-1,2,4-triazole-3-carboxamide]
1370	CN1C(=O)[C@@H](NC(=O)c2cc(C3(O)CCC3)ccn2)COc2ccccc21 [Example 327, (S)-4-(1-hydroxycyclobutyl)-N-(5-methyl-4-oxo-2,3,4,5-tetrahydrobenzo[b][1,4]oxazepin-3-yl)picolinamide]
59.4	CN1C(=O)[C@@H](NC(=O)c2nnc(Cc3ccccc3)o2)CCn2nc(C3CC3)cc21 [Example 282, (S)-5-benzyl-N-(2-cyclopropyl-4-methyl-5-oxo-5,6,7,8-tetrahydro-4H-pyrazolo[1,5-a][1,3]diazepin-6-yl)-1,3,4-oxadiazole-2-carboxamide]
118	CN1C(=O)C(NC(=O)c2cn(Cc3ccccc3)nn2)CCn2cncc21 (stereo not shown) [Example 295, 1-benzyl-N-(1-methyl-2-oxo-2,3,4,5-tetrahydro-1H-imidazo[1,5-a][1,3]diazepin-3-yl)-1H-1,2,3-triazole-4-carboxamide]

Same assay, conditions: tight-binding apparent inhibition constant; human RIP1 kinase domain (2-375) 50 nM, 50 uM ATP, 2 hours; read-out: Ki

Ki [nM]	Compound
23	CC[C@H]1C[C@H](Cn2cnc(C(=O)N[C@H]3CCn4nccc4N(C)C3=O)n2)C1 [Example 503, N—((S)-4-methyl-5-oxo-5,6,7,8-tetrahydro-4H-pyrazolo[1,5-a][1,3]diazepin-6-yl)-1-(((1S,3 S)-3-ethylcyclobutyl)methyl)-1H-1,2,4-triazole-3-carboxamide]
40	Cc1nn2c(c1C)N(C)C(=O)[C@@H](NC(=O)c1nnc(Cc3cccc(F)c3F)[nH]1)CC2 [Example 490, 5-[(2,3-difluorophenyl)methyl]-N-(6S)-2,3,4-trimethyl-5-oxo-7,8-dihydro-6H-pyrazolo[1,5-a][1,3]diazepin-6-yl-4H-1,2,4-triazole-3-carboxamide]
730	Cc1cc2n(n1)CC[C@H](NC(=O)c1ncn(Cc3cccnc3C)n1)C(=O)N2C [Example 664, 1-[(2-methyl-3-pyridyl)methyl]-N-(6S)-2,4-dimethyl-5-oxo-7,8-dihydro-6H-pyrazolo[1,5-a][1,3]diazepin-6-yl-1,2,4-triazole-3-carboxamide]
100	CN1C(=O)C(NC(=O)c2ncn(Cc3ccccc3)n2)CCn2nc(C(C)(F)F)cc21 (racemic) [Example 371, 1-benzyl-N-[2-(1,1-difluoroethyl)-4-methyl-5-oxo-7,8-dihydro-6H-pyrazolo[1,5-a][1,3]diazepin-6-yl]-1,2,4-triazole-3-carboxamide]
47	COc1ccccc1Cn1cnc(C(=O)N[C@H]2CCn3nccc3N(C)C2=O)n1 [Example 587, 1-[(2-methoxyphenyl)methyl]-N-(6S)-4-methyl-5-oxo-7,8-dihydro-6H-pyrazolo[1,5-a][1, 3]diazepin-6-yl-1,2,4-triazole-3-carboxamide]
12	Cc1cc(F)c2c(c1)OC[C@H](NC(=O)c1nc3n(n1)CCO[C@H]3c1ccccc1)C(=O)N2 [Example 642, (8S)-8-phenyl-N-[(3S)-6-fluoro-8-methyl-4-oxo-3,5-dihydro-2H-1,5-benzoxazepin-3-yl]-6,8-dihydro-5H-[1,2,4]triazolo[5,1-c][1,4]oxazine-2-carboxamide]
3.46	Cc1cc(F)c2c(c1)OC[C@H](NC(=O)c1nc3n(n1)[C@H](C(C)C)CCC3)C(=O)N2 (single isomer, unassigned) [Example 440]
160	O=C(N[C@H]1CCc2cc(F)cc(F)c2NC1=O)c1nc2n(n1)CC[C@@H]2c1ccccc1 (single isomer, unassigned) [Example 627]
113	CN1C(=O)[C@@H](NC(=O)c2ncc3c(n2)[C@@]2(CCCOC2)OC3)COc2ccccc21 (racemic) [Example 692, rac-(7R)-N-[rac-(3S)-5-methyl-4-oxo-2,3-dihydro-1,5-benzoxazepin-3-yl]spiro[5H-furo[3,4-d]pyrimidine-7,3′-tetrahydropyran]-2-carboxamide]
154	CC(O)c1cc2n(n1)CC[C@H](NC(=O)c1ncn(Cc3ccccc3)n1)C(=O)N2C (single isomer, unassigned) [Example 368]
54	Cc1ncn2c1N(C)C(=O)[C@H](NC(=O)c1ncn(Cc3ccccc3F)n1)CC2 [Example 580, 1-[(2-fluorophenyl)methyl]-N-[(3R)-1,9-dimethyl-2-oxo-4,5-dihydro-3H-imidazo[1,5-a][1,3]diazepin-3-yl]-1,2,4-triazole-3-carboxamide]
100	CN1C(=O)[C@@H](NC(=O)c2nc3n(n2)C(c2ccccc2F)CCC3)CCn2nccc21 (stereo partly drawn) [Example 387, 5-(2-fluorophenyl)-N—((S)-4-methyl-5-oxo-5,6,7,8-tetrahydro-4H-pyrazolo[1,5-a][1,3]diazepin-6-yl)-5,6,7,8-tetrahydro-[1,2,4]triazolo[1,5-a]pyridine-2-carboxamide]
120	CN1C(=O)[C@@H](NC(=O)c2ncc3c(n2)[C@]2(CCCOC2)OC3)COc2ccccc21 (racemic) [Example 696, rac-(75)-N-[rac-(3S)-5-methyl-4-oxo-2,3-dihydro-1,5-benzoxazepin-3-yl]spiro[5H-furo[3,4-d]pyrimidine-7,3′-tetrahydropyran]-2-carboxamide]
